Results on 8 compounds are retold here after patent publication US20200003760A1, “IN-VITRO METHODS FOR CLASSIFYING DRUGS ACCORDING TO THEIR POTENTIAL TO CAUSE LIVER CELL INJURY” (Board of Trustees of Michigan State University, priority 2018, published 2020).

The conditions of data set [1]: cited from earlier work; for True classification: IDILI in human patients; for IDILI liability: criteria of Xu et al. (2008).
The subject of the next data set is HepG2 cells. Kind of data set: Drug/cytokine-induced cytotoxicity (% LDH release) concentration-response in HepG2 cells. In kind it is cell-based, human. Set-up: key to Deltadiff: LDH release percentage points (drug/TNF Delta minus drug/VEH Delta). To be noted: for R10 IFN: with IFN; for R10 TNF: with TNF; for R10 TNF/IFN / EC10 TNF/IFN: with TNF and IFN; for Deltadiff: Delta of drug/TNF curve minus Delta of drug/VEH curve (LDH percentage); for cytotoxicity of drug on its own (LDH release): absence of cytokines; for D10 (LDH rise of at least 10 points, yes/no) / Emax: Homo sapiens; for TNF change: D10TNF − D10VEH; for EC10: value corresponding to 10% of Delta (max-min); for EC10 / EC10 IFN / EC10 TNF / EC10 TNF/IFN: NA = no significant increase; for EC10 IFN / EC10 TNF / EC10 TNF/IFN: value corresponding to 10% of Delta; for EC10 IFN: with IFN 10 ng/ml; for EC10 TNF: with TNF 10 ng/ml; for cytotoxic interaction of drug with TNF: TNF 10 ng/ml; for effect of IFN coexposure on the drug/TNF cytotoxic interaction: TNF and IFN 10 ng/ml each. The method, then:
Cells were passed or used for experiments when they reached approximately 80% confluence. Cells were used at passage 6-16.
HepG2 cells were plated at a density of 4×10^4 cells per well in black-walled, 96-well, tissue culture plates and were allowed to attach overnight before being treated with compounds. Drugs were reconstituted in vehicles consisting of sterile water or DMSO (concentration less than 0.5%). Cells were treated with various concentrations of the drug or its vehicle (control) alone or in combination with the cytokines TNF (10 ng/ml) and/or IFN (10 ng/ml) or their PBS vehicle (VEH). Cytotoxicity was evaluated as lactate dehydrogenase (LDH) activity released from the cells into culture medium using the Homogeneous Membrane Integrity Assay kit from Promega (Madison, Wis.).
Concentration-response curves were generated for 24 drugs, 14 of which are associated with human IDILI and 10 of which are not. […] This was necessary because four-parameter logistic modeling used in the statistical analysis requires well defined, sigmoidal concentration-response curves. Cells were exposed to drug/cytokine combinations for 24 hours. For analysis of drug concentration-response data, concentrations of each drug were expressed as a fraction of its Cmax.
Defining covariates: four-parameter logistic model. In the first phase, variables (potential covariates) for use in the classification analysis were defined from the analysis of drug concentration-response data. Initially, a one-way analysis of variance (ANOVA) was used as an omnibus test to determine if a particular treatment (e.g. drug alone or in combination with TNF and/or IFN) caused a significant change in LDH release relative to baseline (i.e., LDH release in the absence of drug, hereafter designated “min”). The criterion for significance for the ANOVA was set at α=0.01. A 1% level of significance was used to rule out more vigorously marginal relationships between concentration and response.
where LDH(x) is the percentage of LDH released at a given concentration x; x=[drug]/Cmax; min=the % LDH release at 0 drug concentration (i.e., baseline); and max=the maximal LDH response (i.e., maximum % LDH release).
where D10 is a categorical variable related to reaching a threshold LDH response above which a drug is classified as positively associated with IDILI. D10 is defined as 0 if Delta<10% LDH release and as 1 if Delta≥10% LDH release.
The base covariate R10 represents the [drug]/Cmax value associated with an increase in 10 LDH percentage points above min for a particular treatment condition and was determined by the equation:
R10 was considered to be 0 when the Delta<10% LDH (i.e. when D10=0).
EC50 quotient, EC10 quotient and R10 quotient represent the ratio between the EC50, EC10 or R10 of the drug/cytokine concentration-response curve and the respective value for the drug/VEH concentration-response curve. In some instances, the value derived from this calculation is indeterminate (i.e. when the denominator=0). In order to incorporate the quotient values into the classification models described below, the categorical variable “Q” was used to eliminate the possibility of the quotient being indeterminate. Q is defined as 0 if Delta VEH and/or Delta cytokine is <10% LDH and 1 if both Delta VEH and Delta cytokine are ≥10% LDH. […] The same condition was applied for calculation of EC10 quotient and R10 quotient.
Deltadiff represents the difference between the Delta of the drug/cytokine concentration-response curve and the Delta of the drug/VEH curve. In other words, Deltadiff=(Delta cytokine)−(Delta VEH). FIG. 1 graphically illustrates several of the covariates defined above. […] In addition to the covariates derived from the concentration-response curves, the maximal therapeutic plasma drug concentration (Cmax) in human patients was used in some models (Table 1).

The conditions of data set [2]: maximal plasma concentration after pharmacologic dosing in human patients; cited from earlier work.
Setting [3] is: 10 percent increase in LDH response above min, 0 when D10 = 0, drug alone (VEH).
Where [4] appears, read: 10 percent increase in LDH response above min, 0 when D10 = 0.
The mark [5] stands for this setting: HepG2, categorical, Delta threshold 10 LDH percentage points, drug alone (VEH).
Setting [6] is: HepG2, maximal LDH response, drug alone (VEH), 24 h, read-out: max.
Setting [7] is: HepG2, categorical, Delta threshold 10 LDH percentage points, drug alone (VEH), read-out: D10.

Read-outs that look alike come from different tables or passages of the source.

In the case of `CCc1ccc(CCOc2ccc(CC3SC(=O)NC3=O)cc2)nc1` (stereo not shown) [Pioglitazone], in data set [1], the True classification result was “IDILI−” and the IDILI liability entry is recorded as “IDILI−”. Also, in the data set on HepG2 cells (setting [3]), the R10 is 80.1 [drug]/Cmax. Also, in the data set on HepG2 cells (setting [4]), the “R10 IFN” value was 84.6 [drug]/Cmax, the “R10 TNF” value was 84.5 [drug]/Cmax and the “R10 TNF/IFN” value was 87.3 [drug]/Cmax. In the data set with HepG2 cells, the Deltadiff was determined as 0.8, the “EC10 IFN” value was 74.2 [drug]/Cmax, the “EC10 TNF” value was 72.8 [drug]/Cmax and the “EC10 TNF/IFN” value was 81.8 [drug]/Cmax. Further, in the data set with HepG2 cells (HepG2, 24 h, TNF and/or IFN), the “synergy with cytokines to kill HepG2 cells” value was “not enhanced by the addition of cytokines”. Further, in the data set with HepG2 cells (HepG2, 24 h), the “cytotoxicity of drug on its own (LDH release)” value (“cytotoxicity of drug on its own” below) is recorded as “caused cytotoxicity on its own”. Further, the D10 (LDH rise of at least 10 points, yes/no) with HepG2 cells (setting [5]) is above 10%. In the data set on HepG2 cells (setting [6]), the Emax was 44.1%. Also, in the data set on HepG2 cells (categorical), the TNF change stood at 0. Besides, the EC10 with HepG2 cells (drug alone (VEH)) is 71.4 [drug]/Cmax. The Cmax in data set [2] is 2.67 µM.
Turning to `C[C@H]1COc2c(N3CCN(C)CC3)c(F)cc3c(=O)c(C(=O)O)cn1c23` [Levofloxacin], the R10 in the data set with HepG2 cells (setting [3]) was 0 [drug]/Cmax. Moreover, in the data set with HepG2 cells (setting [4]), the “R10 IFN” value is 0 [drug]/Cmax, the “R10 TNF” value was 0 [drug]/Cmax and the “R10 TNF/IFN” value was 0 [drug]/Cmax. Moreover, the Deltadiff with HepG2 cells is recorded as 0. The Emax in the data set on HepG2 cells (setting [7]) was below 10%. Further, in the data set on HepG2 cells (setting [6]), the Emax stood at 14%. Further, the TNF change in the data set with HepG2 cells (categorical) is reported as 0. Moreover, the Cmax in data set [2] is 15.7 µM.
On to `O=C1CC2(CCCC2)CC(=O)N1CCCCN1CCN(c2ncccn2)CC1` [Buspirone], for which, in data set [1], the True classification result was “IDILI−” and the IDILI liability entry is reported as “IDILI−”. In addition, in the data set with HepG2 cells (setting [3]), the R10 was 0 [drug]/Cmax. Besides, in the data set on HepG2 cells (setting [4]), the “R10 IFN” value was 0 [drug]/Cmax, the “R10 TNF” value is 0 [drug]/Cmax and the “R10 TNF/IFN” value is 0 [drug]/Cmax. The Deltadiff in the data set with HepG2 cells came to 0. For the same compound, the Emax in the data set on HepG2 cells (setting [7]) was below 10%. For the same compound, in the data set with HepG2 cells (setting [6]), the Emax came to 17.6%. For the same compound, in the data set on HepG2 cells (categorical), the TNF change was determined as 0. The Cmax in data set [2] is 0.005 µM.
Regarding `O=C(O)Cc1ccccc1Nc1c(Cl)cccc1Cl` [Diclofenac], in the data set with HepG2 cells, the R10 was 0 [drug]/Cmax, the Deltadiff worked out at 21.0, the “EC10 TNF” value was 23.9 [drug]/Cmax and the “EC10 TNF/IFN” value is 23.2 [drug]/Cmax. Further, in the data set on HepG2 cells (setting [4]), the “R10 IFN” value was 0 [drug]/Cmax, the “R10 TNF” value was 28.3 [drug]/Cmax and the “R10 TNF/IFN” value is 26.7 [drug]/Cmax. In the data set on HepG2 cells (HepG2, 24 h), the “cytotoxic interaction of drug with TNF” value is listed as “synergized with TNF to cause cytotoxicity”, the “effect of IFN coexposure on the drug/TNF cytotoxic interaction” value is recorded as “coexposure to IFN enhanced the cytotoxic interaction” and the “cytotoxicity of drug on its own” value is reported as “caused no cytotoxicity on their own”. In addition, the Emax in the data set with HepG2 cells (HepG2, read-out: D10) is below 10%. In the data set on HepG2 cells (setting [6]), the Emax turned out to be 15.6%. Besides, the TNF change in the data set on HepG2 cells (categorical) is reported as 1.
Turning to `CC(C)Cc1ccc(C(C)C(=O)O)cc1` (stereo not shown) [Ibuprofen], in the data set with HepG2 cells (setting [3]), the R10 is 51.7 [drug]/Cmax. Besides, in the data set on HepG2 cells (setting [4]), the “R10 IFN” value is 51.3 [drug]/Cmax, the “R10 TNF” value was 14.4 [drug]/Cmax and the “R10 TNF/IFN” value is 15.5 [drug]/Cmax. Moreover, in the data set on HepG2 cells, the Deltadiff amounted to 3.9, the “EC10 IFN” value was 50.7 [drug]/Cmax, the “EC10 TNF” value is 14.1 [drug]/Cmax and the “EC10 TNF/IFN” value is 14.6 [drug]/Cmax. In the data set with HepG2 cells (HepG2, 24 h), the “cytotoxic interaction of drug with TNF” value is “TNF significantly enhanced the cytotoxicity” and the “cytotoxicity of drug on its own” value is “statistically significant increase in LDH release”. Moreover, the Emax with HepG2 cells (setting [7]) is above 10%. Besides, in the data set with HepG2 cells (setting [6]), the Emax turned out to be 101%. Moreover, the TNF change with HepG2 cells (categorical) worked out at 0. Moreover, the EC10 in the data set with HepG2 cells (drug alone (VEH)) is 50.9 [drug]/Cmax. Moreover, the Cmax in data set [2] is 164 µM.
Regarding `CCCC(CCC)C(=O)O` [Valproic Acid], in data set [1], the True classification result is “IDILI+”. Further, in the data set with HepG2 cells (setting [4]), the “R10 IFN” value is 51.3 [drug]/Cmax and the “R10 TNF” value is 23.3 [drug]/Cmax. In the data set on HepG2 cells, the Deltadiff is on record as 37.1 and the “EC10 IFN” value is 23.4 [drug]/Cmax. Further, the Emax in the data set on HepG2 cells (setting [6]) is 44.5%. Also, the TNF change in the data set with HepG2 cells (categorical) is 0. Also, the Cmax in data set [2] is 175 µM.
As for `COc1c(N2C[C@@H]3CCCN[C@@H]3C2)c(F)cc2c(=O)c(C(=O)O)cn(C3CC3)c12` [Moxifloxacin], the R10 in the data set on HepG2 cells (setting [3]) was 0 [drug]/Cmax. In the data set with HepG2 cells (setting [4]), the “R10 IFN” value is 0 [drug]/Cmax, the “R10 TNF” value is 0 [drug]/Cmax and the “R10 TNF/IFN” value is 0 [drug]/Cmax. The Deltadiff in the data set with HepG2 cells is given as 0. In addition, the Emax in the data set with HepG2 cells (setting [7]) is below 10%. Further, the Emax in the data set on HepG2 cells (setting [6]) was 9.7%. Moreover, the TNF change in the data set on HepG2 cells (categorical) is on record as 0. Moreover, the Cmax in data set [2] is 6.2 µM.
With `CC[C@H]1OC(=O)[C@H](C)C(=O)[C@H](C)[C@@H](O[C@@H]2O[C@H](C)C[C@H](N(C)C)[C@H]2O)[C@](C)(OC)C[C@@H](C)C(=O)[C@H](C)[C@H]2N(CCCCn3cnc(-c4cccnc4)c3)C(=O)O[C@]12C` [Telithromycin], in data set [1], the True classification result is on record as “IDILI+” and the IDILI liability result is “IDILI+”. Also, the R10 in the data set on HepG2 cells (setting [3]) is 76.6 [drug]/Cmax. Further, in the data set with HepG2 cells (setting [4]), the “R10 IFN” value is 81.3 [drug]/Cmax, the “R10 TNF” value was 50.5 [drug]/Cmax and the “R10 TNF/IFN” value was 39.3 [drug]/Cmax. For the same compound, in the data set on HepG2 cells, the Deltadiff is −17.1, the “EC10 IFN” value is 80.7 [drug]/Cmax, the “EC10 TNF” value is 47.7 [drug]/Cmax and the “EC10 TNF/IFN” value is 39.0 [drug]/Cmax. Besides, in the data set on HepG2 cells (HepG2, 24 h), the “cytotoxic interaction of drug with TNF” value is recorded as “TNF significantly enhanced the cytotoxicity”, the “effect of IFN coexposure on the drug/TNF cytotoxic interaction” value is “coexposure to IFN enhanced the cytotoxic interaction” and the “cytotoxicity of drug on its own” value is listed as “statistically significant increase in LDH release”. Further, the D10 (LDH rise of at least 10 points, yes/no) in the data set with HepG2 cells (setting [5]) was above 10%. In addition, in the data set with HepG2 cells (setting [6]), the Emax was found to be 117%. For the same compound, in the data set with HepG2 cells (categorical), the TNF change is listed as 0. For the same compound, the EC10 in the data set on HepG2 cells (drug alone (VEH)) was 77.0 [drug]/Cmax. For the same compound, in data set [2], the Cmax is 2.77 µM.
